T/C data for 20 molecules are collected here from PubChem BioAssay AID328 (DTP/NCI, 2004).

In the experiment the test system is BDF1 mice, P388 leukemia ip, median survival T/C. Put plainly: NCI In Vivo Anticancer Drug Screen. Data for tumor model P388 Leukemia (intraperitoneal) in B6D2F1 (BDF1) mice. The settings on record: endpoint: median survival time, higher = longer survival. The method, boiled down:
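Mice carrying the transplantable tumour receive compound or vehicle. Survival is followed in each arm, and the treated measure is divided by the vehicle measure.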

Where [1] appears, read: dose: 100.0 mg/kg/injection, schedule: Q01DX009 (ip), vehicle: Klucel (hydroxypropylcellulose) (HPC).
Setting [2] is: dose: 200.0 mg/kg/injection, schedule: Q01DX009 (ip), vehicle: Klucel (hydroxypropylcellulose) (HPC).
The mark [3] stands for this setting: dose: 400.0 mg/kg/injection, schedule: Q01DX009 (ip), vehicle: Klucel (hydroxypropylcellulose) (HPC).
Setting [4] is: dose: 100.0 mg/kg/injection, schedule: Q04DX003 (ip), vehicle: saline with Tween-80.
Where [5] appears, read: dose: 200.0 mg/kg/injection, schedule: Q04DX003 (ip), vehicle: saline with Tween-80.
[6] abbreviates: dose: 400.0 mg/kg/injection, schedule: Q04DX003 (ip), vehicle: saline with Tween-80.
Where [7] appears, read: dose: 25.0 mg/kg/injection, schedule: Q01DX009 (ip), vehicle: saline with Tween-80.
[8] abbreviates: dose: 25.0 mg/kg/injection, schedule: Q04DX003 (ip), vehicle: saline with Tween-80.
Where [9] appears, read: dose: 50.0 mg/kg/injection, schedule: Q04DX003 (ip), vehicle: saline with Tween-80.
The mark [10] stands for this setting: dose: 100.0 mg/kg/injection, schedule: Q04DX003 (ip), vehicle: Klucel (hydroxypropylcellulose) (HPC).
The mark [11] stands for this setting: dose: 200.0 mg/kg/injection, schedule: Q04DX003 (ip), vehicle: Klucel (hydroxypropylcellulose) (HPC).
Where [12] appears, read: dose: 400.0 mg/kg/injection, schedule: Q04DX003 (ip), vehicle: Klucel (hydroxypropylcellulose) (HPC).

“And” between values parts separate entries of the source, which are not always exact repeats. Identical values can stand only once. Inconclusive results and toxic doses are left out.

For the molecule `CCOC1c2cnc(C)n2C=CN1C(C)=O` (stereo not drawn), the T/C is 109 % of control (dose: 50.0 mg/kg/injection, schedule: Q04DX003 (ip), vehicle: water); 100 % of control and 104 % of control (dose: 100.0 mg/kg/injection, schedule: Q04DX003 (ip), vehicle: water); 101 % of control and 111 % of control (dose: 200.0 mg/kg/injection, schedule: Q04DX003 (ip), vehicle: water); 110 % of control (dose: 300.0 mg/kg/injection, schedule: Q04DX003 (ip), vehicle: water); 118 % of control (dose: 400.0 mg/kg/injection, schedule: Q04DX003 (ip), vehicle: water).
Consider `Cn1cnc2c1c(=O)[nH]c(=O)n2C`, for which the T/C was 109 % of control under setting [1], 104 % of control under setting [2] and 97 % of control under setting [3].
With `CCCCCCCCCCC(C(=O)O)C1(C(=O)O)CCC(=O)O1` (stereo not drawn), the T/C is 107 % of control (dose: 50.0 mg/kg/injection, schedule: Q01DX009 (ip), vehicle: Klucel (hydroxypropylcellulose) (HPC)); 107 % of control under setting [1]; 98 % of control under setting [2].
As to `Cn1c(CC(O)(C(F)(F)F)C(F)(F)F)cc2ccccc21`, the T/C (dose: 100.0 mg/kg/injection, schedule: Q01DX001 (ip), vehicle: other) is 87 % of control and the T/C (dose: 400.0 mg/kg/injection, schedule: Q01DX001 (ip), vehicle: other) is 95 % of control.
On to `Clc1ccc(/C=N\N=C\c2ccc(Cl)c(Cl)c2)cc1Cl`, for which the T/C is, setting by setting: under setting [4], 105 % of control; under setting [5], 111 % of control; under setting [6], 111 % of control.
Consider `Nc1ncc(C(=O)O)c(N)n1`, for which the T/C was 87 % of control (dose: 0.75 mg/kg/injection, schedule: Q01DX009 (ip), vehicle: saline with Tween-80); 104 % of control (dose: 1.5 mg/kg/injection, schedule: Q01DX009 (ip), vehicle: saline with Tween-80); 91 % of control (dose: 3.0 mg/kg/injection, schedule: Q01DX009 (ip), vehicle: saline with Tween-80); 88 % of control (dose: 6.25 mg/kg/injection, schedule: Q01DX009 (ip), vehicle: saline with Tween-80); 100 % of control (dose: 12.5 mg/kg/injection, schedule: Q04DX003 (ip), vehicle: saline with Tween-80); 111 % of control under setting [7]. Also, the T/C is 100 % of control under setting [8] and 100 % of control under setting [9].
In the case of `COC(=O)Nc1nc2ccc(C(=O)c3ccccc3)cc2[nH]1`, the T/C by setting is: (dose: 10.0 mg/kg/injection, schedule: Q04DX003 (ip), vehicle: other) 106 % of control; (dose: 30.0 mg/kg/injection, schedule: Q04DX003 (ip), vehicle: saline with Tween-80) 173 % of control; (dose: 35.0 mg/kg/injection, schedule: Q04DX003 (ip), vehicle: saline with Tween-80) 178 % of control.
With `CC1C/C=C2\CSC(NC(=O)/C3=C\N(C/C=C/C=C/C(O)CC(O)CC(=O)N3)C2=O)C(=O)O1` (stereo not drawn), the T/C reads like this: under setting [1], 91 % of control; under setting [2], 100 % of control; under setting [3], 91 % of control.
In the case of `OC(Cc1nc(-c2ccccc2)c(-c2ccccc2)s1)(C(F)(F)F)C(F)(F)F`, the T/C is 100 % of control under setting [4], 104 % of control under setting [5] and 100 % of control under setting [6].
With `COc1cccc(CC2=NCCc3cc(OC)c(OC)cc32)c1`, the T/C is, setting by setting: (dose: 6.25 mg/kg/injection, schedule: Q01DX009 (ip), vehicle: saline) 108 % of control; (dose: 12.5 mg/kg/injection, schedule: Q01DX009 (ip), vehicle: saline) 94 % of control; (dose: 25.0 mg/kg/injection, schedule: Q01DX009 (ip), vehicle: saline) 94 % of control; (dose: 25.0 mg/kg/injection, schedule: Q04DX003 (ip), vehicle: saline) 87 % of control; (dose: 50.0 mg/kg/injection, schedule: Q01DX009 (ip), vehicle: saline) 95 % of control and 98 % of control; (dose: 50.0 mg/kg/injection, schedule: Q04DX003 (ip), vehicle: saline) 91 % of control.
Consider `CC(=O)N1CCc2nc3ccccc3cc21`, for which the T/C is, setting by setting: (dose: 24.75 mg/kg/injection, schedule: Q01DX009 (ip), vehicle: Klucel (hydroxypropylcellulose) (HPC)) 123 % of control; (dose: 25.0 mg/kg/injection, schedule: Q01DX009 (ip), vehicle: Klucel (hydroxypropylcellulose) (HPC)) 105 % of control; (dose: 37.5 mg/kg/injection, schedule: Q01DX009 (ip), vehicle: Klucel (hydroxypropylcellulose) (HPC)) 104 % of control and 105 % of control; (dose: 56.25 mg/kg/injection, schedule: Q01DX009 (ip), vehicle: Klucel (hydroxypropylcellulose) (HPC)) 104 % of control and 110 % of control.
On to `O=[N+]([O-])OCc1c(Cl)nc(Cl)c(Cl)c1Cl`, for which the T/C is, setting by setting: under setting [7], 115 % of control; under setting [8], 95 % of control; (dose: 50.0 mg/kg/injection, schedule: Q01DX009 (ip), vehicle: saline with Tween-80) 110 % of control; under setting [9], 100 % of control; under setting [4], 108 % of control.
With `O=C(NO)c1ccc(O)c(O)c1`, the T/C is 153 % of control (dose: 200.0 mg/kg/injection, schedule: Q01DX005 (ip), vehicle: water) and 166 % of control (dose: 400.0 mg/kg/injection, schedule: Q01DX005 (ip), vehicle: water).
As for `CC(CC(=O)O)(CC(=O)O)c1ccccc1`, the T/C by setting is: under setting [1], 100 % of control; under setting [10], 104 % of control; under setting [2], 95 % of control; under setting [11], 95 % of control; under setting [3], 100 % of control; under setting [12], 90 % of control.
Turning to `C=C1C(=O)OC2/C=C(\C)C3(O)C=CC(C)(CC(OC(=O)C(C)C)C12)O3` (stereo not drawn), the T/C by setting is: (dose: 10.0 mg/kg/injection, schedule: Q01DX009 (ip), vehicle: saline) 103 % of control; (dose: 12.5 mg/kg/injection, schedule: Q01DX009 (ip), vehicle: other) 161 % of control; (dose: 25.0 mg/kg/injection, schedule: Q01DX009 (ip), vehicle: other) 155 % of control; (dose: 40.0 mg/kg/injection, schedule: Q01DX009 (ip), vehicle: saline) 100 % of control; (dose: 50.0 mg/kg/injection, schedule: Q01DX009 (ip), vehicle: other) 161 % of control.
On to `O=C1NC(O)c2cc(CO)ccc2O1` (stereo not drawn), for which the T/C reads like this: (dose: 50.0 mg/kg/injection, schedule: Q01DX005 (ip), vehicle: saline with Tween-80) 100 % of control; (dose: 100.0 mg/kg/injection, schedule: Q01DX005 (ip), vehicle: saline with Tween-80) 104 % of control; (dose: 200.0 mg/kg/injection, schedule: Q01DX005 (ip), vehicle: saline with Tween-80) 109 % of control.
Consider `CC/C(=C(\CC)c1ccc(OCCN(CC)CC)cc1)c1ccc(OCCN(CC)CC)cc1`, for which the T/C by setting is: (dose: 12.5 mg/kg/injection, schedule: Q01DX010 (ip), vehicle: carboxymethylcellulose (CMC)) 100 % of control; (dose: 25.0 mg/kg/injection, schedule: Q01DX010 (ip), vehicle: carboxymethylcellulose (CMC)) 105 % of control.
Take `O=[N+]([O-])c1cccc(C[n+]2ccccc2C2OCCO2)c1`: the T/C was 104 % of control (dose: 8.75 mg/kg/injection, schedule: Q01DX009 (ip), vehicle: saline); 100 % of control (dose: 17.5 mg/kg/injection, schedule: Q01DX009 (ip), vehicle: saline); 100 % of control (dose: 26.25 mg/kg/injection, schedule: Q04DX003 (ip), vehicle: saline); 109 % of control (dose: 35.0 mg/kg/injection, schedule: Q01DX009 (ip), vehicle: saline); 95 % of control (dose: 52.5 mg/kg/injection, schedule: Q04DX003 (ip), vehicle: saline).
Consider `Nc1nc(N)c2cc(CNc3ccc(C(=O)NC(C(=O)O)C(=O)O)cc3)ccc2n1`, for which the T/C (dose: 0.15 mg/kg/injection, schedule: Q01DX009 (ip), vehicle: saline) was 163 % of control.
For the molecule `CCOC(=O)/C=C\c1c(OC)nc2ccccn2c1=O` (tested in a mixture with another compound), the T/C is 116 % of control under setting [1]; 122 % of control under setting [10]; 121 % of control under setting [2]; 109 % of control under setting [11]; 111 % of control under setting [3]; 113 % of control under setting [12].
